# In patent publication US9421204B2, “Oligomer modified diaromatic substituted compounds” (priority 2010, dated 2016):
# Read-outs that look alike come from different tables or passages of the source.
# How the values were obtained:
# [1] = Toxicity XTT in CEM-SS cells (drug resistant strain assay); type: cell-based; settings: human, CEM-SS cells, read-out: TC50 (the source's name)
# Description: (§1) Cells were prepared as described above. Virus Preparation—The wild type NL4-3 and drug resistant A17 viruses were obtained from the NIH AIDS Research and Reference Reagent Program and stock virus pools were produced in CEM-SS cells. Amino acid substitutes of L100I, Y181C and P23L were introduced by site-directed mutagenesis into pN L4-3 and stock virus pools were produced in CEM-SS cells. A pretitered aliquot of virus was removed from the freezer (−80° C.) and allowed to thaw slowly to room temperature in a biological safety cabinet. Virus was re-suspended and diluted into tissue culture medium such that the amount of virus added to each well in a volume of 50 μL was the amount determined to yield 85 to 95% cell killing at 6 days post-infection.
# (§2) Plate Format—Each plate contains cell control wells (cells only), virus control wells (cells plus virus), drug toxicity wells (cells plus drug only), drug colorimetric control wells (drug only) as well as experimental wells (drug plus cells plus virus). Samples were tested in triplicate with eleven half-log dilutions per compound. Efficacy and Toxicity XTT—Following incubation at 37° C. in a 5% CO2 incubator, the test plates were stained with the tetrazolium dye XTT (2,3-bis(2-methoxy-4-nitro-5-sulfophenyl)-5-[(phenylamino)carbonyl]-2H-tetrazolium hydroxide). XTT-tetrazolium was metabolized by the mitochondrial enzymes of metabolically active cells to a soluble formazan product, allowing rapid quantitative analysis of the inhibition of HIV induced cell killing by anti-HIV test substances. XTT solution was prepared daily as a stock of 1 mg/mL in RPMI1640. Phenazine methosulfate (PMS) solution was prepared at 0.15 mg/mL in PBS and stored in the dark at −20° C. XTTIPMS stock was prepared immediately before use by adding 40 μL of PMS per ml of XTT solution. Fifty microliters of XTT/PMS was added to each well of the plate and the plate was re-incubated for 4 hours at 37° C. Plates were sealed with adhesive plate sealers and shaken gently or inverted several times to mix the soluble formazan product and the plate was read spectrophotometrically at 450/650 nm with a Molecular Devices Vmax plate reader.
# (§3) Data Analysis—Raw data was collected from the Softmax Pro 4.6 software and imported into a Excel XLFit4 spreadsheet for analysis by four parameter curve fit calculations. Both antiviral activity and toxicity are calculated.
# CEM-SS cells [2] = test: as above; type: cell-based; settings: read-out: TC50 (the source's name)
# Description: as §1, §2, §3
# CEM-SS cells [3] = test: Toxicity XTT in CEM-SS cells (cytoprotection assay); type: cell-based; settings: XTT; read-out: CEM-SS TC50
# Procedure, shortened: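 CEM-SS cells in exponential growth (>95% viable) were plated with compound alone, as eleven half-log dilutions in triplicate, at 37 °C and 5% CO2. Viability was measured by XTT/PMS metabolism over 4 h, read at 450/650 nm. Toxicity was derived by four-parameter curve fitting.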
# Caco-2 monolayers = test: in vitro; type: in vitro ADME; settings: for Recovery (%) A→B / Recovery (%) B→A / Average Papp, A→B / Average Papp, B→A: 2 hours; for Average Papp, A→B / Average Papp, B→A: pH 7.4
# Procedure, shortened: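 Permeability across Caco-2 monolayers in 12-well Transwell inserts (1.13 cm² area), run in duplicate. Calculation uses receiver and donor volumes, nominal dosing concentration, final receiver and donor concentrations, and the mean of nominal and measured 120 min donor concentrations.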
# [4] = run with HIV-1 strain A17K103N/Y181C
# [5] = run with HIV-1 strain NL4-3L100I
# [6] = run with HIV-1 strain NL4-3P236L
# [7] = run with HIV-1 strain NL4-3Y181C
Compound,"CC50 [1, 4] [µM]",CC50 ([1]; run with HIV-1 strain NL4-3) [µM],"CC50 [1, 5] [µM]","CC50 [1, 6] [µM]","CC50 [1, 7] [µM]",other results
"COCCOCCOCCOCCOc1ccc2[nH]c(C(=O)N3CCN(c4ncccc4NC(C)C)CC3)cc2c1 [mPEG4-O-Delavirdine, 5-O-mPEG4-Delavirdine]",> 5,> 5,> 5,> 5,> 5,
COCCOCCNc1ccc2[nH]c(C(=O)N3CCN(c4ncccc4NC(C)C)CC3)cc2c1 [5-mPEG2-NH-Delavirdine],> 1,> 1,> 1,> 1,> 1,
"COCCNc1ccc2[nH]c(C(=O)N3CCN(c4ncccc4NC(C)C)CC3)cc2c1 [5-mPEG1-NH-Delavirdine, 5-mPEG-NH-Delavirdine]",> 1,> 1,> 1,> 1,> 1,
5-O-mPEG9-Delavirdine [mPEG9-O-Delavirdine],,,,,,"CC50 (CEM-SS cells [2]; [4]): > 5 µM; CC50 (CEM-SS cells [2]; run with HIV-1 strain NL4-3): > 5 µM; CC50 (CEM-SS cells [2]; [5]): > 5 µM; CC50 (CEM-SS cells [2]; [6]): > 5 µM; CC50 (CEM-SS cells [2]; [7]): > 5 µM; CC50 (CEM-SS cells [3]): 40.7 µM; Efflux Ratio (B→A/A→B) (Caco-2 monolayers; Test 1): 12; Recovery (%) A→B (Caco-2 monolayers; Test 1, 10 μM): 66%; Recovery (%) B→A (Caco-2 monolayers; Test 1, 10 μM): 72%; Average Papp, A→B (Caco-2 monolayers; Test 1, 10 μM): 2.22 ×10⁻⁶ cm/s; Average Papp, B→A (Caco-2 monolayers; Test 1, 10 μM): 27.7 ×10⁻⁶ cm/s; Efflux Ratio (B→A/A→B) (Caco-2 monolayers; Test 2): 7.1; Recovery (%) A→B (Caco-2 monolayers; Test 2, 10 μM): 93%; Recovery (%) B→A (Caco-2 monolayers; Test 2, 10 μM): 94%; Average Papp, A→B (Caco-2 monolayers; Test 2, 10 μM): 5.27 ×10⁻⁶ cm/s; Average Papp, B→A (Caco-2 monolayers; Test 2, 10 μM): 37.3 ×10⁻⁶ cm/s"
"COCCOCCOCCOc1ccc2[nH]c(C(=O)N3CCN(c4ncccc4NC(C)C)CC3)cc2c1 [mPEG3-O-Delavirdine, 5-O-mPEG3-Delavirdine]",> 5,> 5,> 5,> 5,> 5,
